Two compounds from US20230310427A1, “NEW THERAPEUTIC USE OF RILPIVIRINE” (UNIVERSITY OF SOUTH AUSTRALIA, priority 2020, published 2023) can be followed below.

Assay [1] has as its system PC3 cells. The assay can be described thus: Cell cycle analysis (flow cytometry). It is filed as cell-based. The conditions noted are these: 48 hour treatment. The protocol: (§1) The effect of Rilpivirine on cell cycle distribution in different cancer cell lines was evaluated by flow cytometric analysis. Briefly, cells were seeded in 6-well plates at a density of 6 × 10^4 cells/well. All plates were incubated overnight at 37° C. in a 5% CO2 incubator. Following the incubation, the test compounds (Rilpivirine (Ril) and comparators, Alisertib (Ali; a known Aurora A inhibitor) and Etravirine (Etra; 4-[[6-amino-5-bromo-2-[(4-cyanophenyl)amino]-4-pyrimidinyl]oxy]-3,5-dimethylbenzonitrile - a structurally similar NNRTI drug compound sold under the brand name Intelence® (Janssen Therapeutics)) were added to individual wells and the plates were incubated at same condition for 24 h, 48 h or 72 h. Subsequently, the medium was removed from the wells and transferred into fluorescence-activated cell sorting (FACS) tubes. The adherent cells remaining were trypsinised, re-suspended in media and transferred into the FACS tubes. Cells were centrifuged, fixed with cold 70% ethanol for 15 min and pelleted. The pelleted cells were then re-suspended in 200 µL propidium iodide (PI) solution (50 µg/mL propidium iodide, 0.1 mg/mL ribonuclease A, 0.1% sodium citrate, 0.1% triton X-100) and incubated in the dark for 1.5 h at room temperature. Following the incubation, 200 µL PBS was added. Samples were assessed using a flow cytometer (Cytoflex; Beckman Coulter Inc, Brea, CA, United States of America) and data were analysed using the Cytexpert software.

In assay [2] the test system is T47D cells. The assay can be described thus: Cell cycle analysis (flow cytometry). It counts as cell-based. The note with it: 48-hour treatment. The protocol:
as §1
Background: A flow cytometer gives signals particle by particle.

Assay [3] concerns the target T1, Aurora B kinase (Homo sapiens, UniProt Q96GD4).
T1 construct: purchased Promega (ADP-Glo kits) or Reaction Biology Corporation / Eurofins discovery services (external)
The assay can be described thus: Kinase assay. The note with it: kinase inhibition profiling (FIG. 2), concentration not given. It is filed as biochemical. The protocol:
(§2) The ability of compounds to inhibit kinases was measured using ADP-Glo^Tm assay kits (Promega, Madison, WI, United States of America) or externally using radioisotope based assays (Reaction Biology Corporation, Malvern, PA, United States of America and Eurofins discovery services, France). The ADP-Glo assay was performed as reported previously (Basnet SK et al., Mol Pharmacol 88(5):935-948, 2015).The assay plate was read for luminescence using Envision multi-label plate reader (PerkinElmer, Waltham, MA, United States of America). Half-maximal inhibition (IC50) values were determined from a plot of percent residual activity versus concentration of test compounds using GraphPad Prism software. Ki values were calculated from IC50 values using the Cheng-Prusoff equation: Ki= IC50/ [1 + ([ATP]/Km ATP)], where [ATP] is the ATP concentration used for the IC50 determination and Km ATP for each kinase is determined from an individual experiment.

The target in assay [4] is T2, Aurora A kinase (Homo sapiens, UniProt O14965).
T2 construct: purchased Promega (ADP-Glo kits) or Reaction Biology Corporation / Eurofins discovery services (external)
T2 sequence (O14965 1-403): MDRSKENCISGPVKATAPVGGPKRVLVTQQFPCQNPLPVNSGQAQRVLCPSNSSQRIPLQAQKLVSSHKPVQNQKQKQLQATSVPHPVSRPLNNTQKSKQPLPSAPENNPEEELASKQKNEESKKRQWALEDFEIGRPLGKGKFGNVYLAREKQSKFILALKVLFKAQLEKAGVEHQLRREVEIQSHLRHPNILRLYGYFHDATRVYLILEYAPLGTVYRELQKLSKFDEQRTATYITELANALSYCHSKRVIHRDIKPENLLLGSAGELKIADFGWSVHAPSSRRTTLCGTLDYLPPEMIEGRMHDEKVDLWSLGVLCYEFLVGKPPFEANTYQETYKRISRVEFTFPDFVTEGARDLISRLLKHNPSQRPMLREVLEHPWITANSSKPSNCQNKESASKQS
The assay can be described thus: Kinase assay. It counts as biochemical. The note with it: kinase inhibition profiling (FIG. 2), concentration not given. The protocol: as §2

T1 sequence (Q96GD4 whole entry): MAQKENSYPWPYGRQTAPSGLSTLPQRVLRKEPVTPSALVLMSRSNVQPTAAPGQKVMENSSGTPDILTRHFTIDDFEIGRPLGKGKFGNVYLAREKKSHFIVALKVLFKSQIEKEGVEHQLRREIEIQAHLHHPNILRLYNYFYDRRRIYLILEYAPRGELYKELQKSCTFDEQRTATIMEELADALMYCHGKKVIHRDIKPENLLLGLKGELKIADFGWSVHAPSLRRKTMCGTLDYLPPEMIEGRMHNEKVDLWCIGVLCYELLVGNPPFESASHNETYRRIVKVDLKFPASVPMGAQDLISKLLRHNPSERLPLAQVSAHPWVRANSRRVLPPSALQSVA

`Cc1cc(C#N)cc(C)c1Oc1nc(Nc2ccc(C#N)cc2)nc(N)c1Br` [Etravirine, 4-[[6-amino-5-bromo-2-[(4-cyanophenyl)amino]-4-pyrimidinyl]oxy]-3,5-dimethylbenzonitrile]: the cell cycle arrest result is listed as “did not induce G2/M arrest” in assay [1] (10 µM) and “no G2/M arrest” in assay [2] (10 µM). For the same compound, in assay [3], the “inhibitory activity against Aurora B” value is on record as “no inhibitory activity”. In assay [4], the “inhibitory activity against Aurora A” value is recorded as “no inhibitory activity”.

Regarding `COc1cc(Nc2ncc3c(n2)-c2ccc(Cl)cc2C(c2c(F)cccc2OC)=NC3)ccc1C(=O)O` [Alisertib], the cell cycle arrest result in assay [1] (p53 mutant) is “induce G2/M arrest”; in assay [2] (p53 mutant), “arrest T47D breast cancer cells in G2/M phase”.
